Laboratory results taken from ChEMBL document CHEMBL1201862, “PubChem BioAssay data set” (2004).
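These data come from cells grown in 96-well plates and exposed to compound for 48 hours at five concentrations. GI50: concentration for 50% inhibition of growth.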 Calls of active or inactive are those of the source. No stated cut-off is given here; in the data, active = GI50 up to about 1.1 µM and inactive = higher.

Assays:
Assay in all cases: NCI tumour cell line growth inhibition, 48 h
TK-10 = system: TK-10
K562 = system: K562
PC-3 = system: PC-3
LOX IMVI = system: LOX IMVI
IGROV-1 = system: IGROV-1
SK-MEL-28 = system: SK-MEL-28
A498 = system: A498
A549 = system: A549
SN12C = system: SN12C
SK-MEL-2 = system: SK-MEL-2
UACC-62 = system: UACC-62
NCI-H226 = system: NCI-H226
ACHN = system: ACHN
HT-29 = system: HT-29
SW-620 = system: SW-620
MDA-MB-435 = system: MDA-MB-435
Malme-3M = system: Malme-3M
NCI-H522 = system: NCI-H522
SF-539 = system: SF-539
HL-60 = system: HL-60

Measured: GI50

Cc1ccsc1/C=N/NC1=NCCN1
inactive: TK-10 > 100 µM | K562 > 100 µM | PC-3 > 100 µM | LOX IMVI > 100 µM | IGROV-1 > 100 µM | SK-MEL-28 > 100 µM | A498 > 100 µM | A549 > 100 µM | SN12C > 100 µM | SK-MEL-2 > 100 µM | UACC-62 > 100 µM | NCI-H226 > 100 µM | ACHN > 100 µM | HT-29 > 100 µM | SW-620 > 100 µM | MDA-MB-435 > 100 µM | Malme-3M > 100 µM

COC(=O)C(/C(=N\O)C(=O)Nc1cccc(Cl)c1C)c1cnc2ccccc2n1 (stereo unspecified)
inactive: TK-10 > 100 µM | K562 > 100 µM | PC-3 > 100 µM | LOX IMVI > 100 µM | IGROV-1 > 100 µM | SK-MEL-28 > 100 µM | A498 > 100 µM | A549 > 100 µM | NCI-H522 > 100 µM | SN12C > 100 µM | SK-MEL-2 > 100 µM | UACC-62 > 100 µM | NCI-H226 > 100 µM | ACHN > 100 µM | HT-29 > 100 µM | SF-539 > 100 µM | SW-620 > 100 µM | MDA-MB-435 > 100 µM | Malme-3M > 100 µM

COC(CNC(=O)C(C)NC(=O)C(C)NC(=O)c1ccccc1)OC (stereo unspecified)
inactive: TK-10 > 100 µM | K562 > 100 µM | PC-3 > 100 µM | IGROV-1 > 100 µM | A549 > 100 µM | NCI-H522 > 100 µM | SN12C > 100 µM | SK-MEL-2 > 100 µM | UACC-62 > 100 µM | NCI-H226 > 100 µM | ACHN > 100 µM | HT-29 > 100 µM | SF-539 > 100 µM | SW-620 > 100 µM | MDA-MB-435 > 100 µM | Malme-3M > 100 µM

N#CC1=C2SCCN2C(=O)C(C#N)C12CCCCC2 (stereo unspecified)
inactive: TK-10 > 100 µM | K562 > 100 µM | PC-3 > 100 µM | LOX IMVI > 100 µM | IGROV-1 > 100 µM | SK-MEL-28 > 100 µM | A498 > 100 µM | A549 > 100 µM | NCI-H522 > 100 µM | SN12C > 100 µM | SK-MEL-2 > 100 µM | UACC-62 > 100 µM | NCI-H226 > 100 µM | ACHN > 100 µM | HT-29 > 100 µM | SF-539 > 100 µM | SW-620 > 100 µM | MDA-MB-435 > 100 µM | Malme-3M > 100 µM

COC(=O)C1CC(C=[N+](C)C)=C(SC)N1 (stereo unspecified)
inactive: TK-10 > 100 µM | K562 > 100 µM | PC-3 > 100 µM | IGROV-1 > 100 µM | SK-MEL-28 > 100 µM | A498 > 100 µM | NCI-H522 > 100 µM | SK-MEL-2 > 100 µM | UACC-62 > 100 µM | ACHN > 100 µM | HT-29 > 100 µM | SW-620 > 100 µM | MDA-MB-435 > 100 µM | Malme-3M > 100 µM

CCC1(C)C=Cc2c(cc(O)c3c(=O)c4ccccc4n(C)c23)O1 (stereo unspecified)
inactive: TK-10 > 10 µM | K562 > 10 µM | PC-3 > 10 µM | LOX IMVI > 10 µM | IGROV-1 > 10 µM | SK-MEL-28 > 10 µM | A498 > 10 µM | A549 > 10 µM | NCI-H522 > 10 µM | SN12C > 10 µM | SK-MEL-2 > 10 µM | UACC-62 > 10 µM | NCI-H226 > 10 µM | ACHN > 10 µM | HT-29 > 10 µM | SF-539 > 10 µM | SW-620 > 10 µM | MDA-MB-435 > 10 µM | Malme-3M > 10 µM

COc1ccc(C(=O)NCCC2CN(S(=O)(=O)C(F)(F)F)c3ccccc32)c(OC)c1 (stereo unspecified)
inactive: K562 28.3 µM | PC-3 36 µM | IGROV-1 61.4 µM | SK-MEL-28 51.2 µM | A498 > 100 µM | A549 52.1 µM | NCI-H522 19.3 µM | SK-MEL-2 53.6 µM | UACC-62 26.9 µM | ACHN 33.2 µM | HT-29 22.7 µM | SW-620 35.8 µM | MDA-MB-435 30.1 µM | Malme-3M 7.06 µM

O=C1c2ccccc2C2C1C(c1ccccc1)C1(Cc3ccccc3C1=O)C2c1ccccc1 (stereo unspecified)
inactive: TK-10 > 100 µM | K562 5.53 µM | PC-3 12.5 µM | LOX IMVI 21.6 µM | IGROV-1 11.7 µM | SK-MEL-28 > 100 µM | HL-60 3.67 µM | A549 > 100 µM | NCI-H522 20.5 µM | SN12C > 100 µM | SK-MEL-2 > 100 µM | UACC-62 10.1 µM | NCI-H226 > 100 µM | ACHN > 100 µM | HT-29 14.8 µM | SF-539 > 100 µM | SW-620 > 100 µM | MDA-MB-435 > 73.6 µM | Malme-3M > 100 µM

ClC1(Cl)C2CCOC21n1cnc2ccccc21 (stereo unspecified)
inactive: K562 > 100 µM | PC-3 > 100 µM | LOX IMVI 98.2 µM | IGROV-1 > 100 µM | SK-MEL-28 > 100 µM | HL-60 > 100 µM | A549 > 100 µM | NCI-H522 14.6 µM | SN12C > 100 µM | SK-MEL-2 > 100 µM | UACC-62 92.9 µM | NCI-H226 > 100 µM | HT-29 > 100 µM | SF-539 > 100 µM | SW-620 7.21 µM | MDA-MB-435 > 100 µM | Malme-3M > 100 µM

C=CC1(c2ccc(Br)cc2)OCCCO1
inactive: TK-10 > 100 µM | K562 > 100 µM | PC-3 > 100 µM | LOX IMVI > 100 µM | IGROV-1 > 100 µM | SK-MEL-28 > 100 µM | HL-60 > 100 µM | A549 > 100 µM | NCI-H522 > 100 µM | SN12C > 100 µM | SK-MEL-2 > 100 µM | UACC-62 > 100 µM | NCI-H226 > 100 µM | ACHN > 100 µM | HT-29 > 100 µM | SF-539 > 100 µM | SW-620 > 100 µM | MDA-MB-435 > 100 µM | Malme-3M > 100 µM

Cc1ccc2nc(CN3CCCCC3)cc(=O)n2c1
inactive: TK-10 > 100 µM | K562 > 100 µM | PC-3 > 100 µM | LOX IMVI > 100 µM | IGROV-1 > 100 µM | SK-MEL-28 > 100 µM | HL-60 > 100 µM | A549 > 100 µM | NCI-H522 > 100 µM | SN12C > 100 µM | SK-MEL-2 > 100 µM | UACC-62 > 100 µM | NCI-H226 > 100 µM | ACHN > 100 µM | HT-29 > 100 µM | SF-539 > 100 µM | SW-620 > 100 µM | MDA-MB-435 > 100 µM | Malme-3M > 100 µM

CCOC(=O)c1c(-c2ccc(Cl)cc2)c(C#N)c(=S)n(C2OC(CO)C(O)C(O)C2O)c1-c1ccccc1 (stereo unspecified)
inactive: TK-10 33.8 µM | K562 19.5 µM | PC-3 19.9 µM | LOX IMVI 14.6 µM | IGROV-1 33.7 µM | SK-MEL-28 17.3 µM | HL-60 > 10 µM | A549 34.2 µM | SN12C 38.4 µM | SK-MEL-2 24.1 µM | UACC-62 18.7 µM | ACHN 35.6 µM | HT-29 17.9 µM | SF-539 19.5 µM | SW-620 18.5 µM | MDA-MB-435 21.3 µM | Malme-3M 40.8 µM

NCCC(=O)NC(Cc1c[nH]cn1)C(=O)O (stereo unspecified)
inactive: TK-10 > 100 µM | K562 > 100 µM | PC-3 > 100 µM | LOX IMVI > 100 µM | IGROV-1 > 100 µM | SK-MEL-28 > 100 µM | HL-60 > 100 µM | A549 > 100 µM | NCI-H522 > 100 µM | SN12C > 100 µM | SK-MEL-2 > 100 µM | NCI-H226 > 100 µM | ACHN > 100 µM | HT-29 > 100 µM | SF-539 > 100 µM | SW-620 > 100 µM | MDA-MB-435 > 100 µM | Malme-3M > 100 µM

O=C(O)CSc1ccc(N=C=S)cc1
inactive: TK-10 75 µM | PC-3 73.3 µM | LOX IMVI 48.6 µM | IGROV-1 > 100 µM | SK-MEL-28 34.8 µM | A498 52.2 µM | A549 > 100 µM | NCI-H522 19.1 µM | SN12C 39.3 µM | SK-MEL-2 73.3 µM | UACC-62 61 µM | NCI-H226 54.5 µM | ACHN > 100 µM | HT-29 > 100 µM | SF-539 30.5 µM | SW-620 > 100 µM | MDA-MB-435 81.8 µM | Malme-3M 27.4 µM

Nc1cc[nH]c(=O)n1
inactive: TK-10 > 100 µM | K562 > 100 µM | LOX IMVI > 100 µM | IGROV-1 > 100 µM | SK-MEL-28 > 100 µM | HL-60 > 100 µM | A498 > 100 µM | A549 > 100 µM | NCI-H522 > 100 µM | SN12C > 100 µM | SK-MEL-2 > 100 µM | UACC-62 > 100 µM | NCI-H226 > 100 µM | ACHN > 100 µM | HT-29 > 100 µM | SF-539 > 100 µM | SW-620 > 100 µM | Malme-3M > 100 µM

CC(=O)OC1CC[C@@]2(C)C(CC(OC3OC(CO)C(O)C(O)C3O)[C@]3(C)C2CCC24CC23CC[C@H]4C(C)CC(O)[C@@H](O)C(C)(C)O)C1(C)C (stereo partly specified)
inactive: TK-10 22.9 µM | K562 15.4 µM | LOX IMVI 8.61 µM | IGROV-1 11.5 µM | SK-MEL-28 9.77 µM | HL-60 11.6 µM | A498 16.8 µM | A549 > 50 µM | NCI-H522 8.63 µM | SN12C 12.7 µM | SK-MEL-2 10.3 µM | UACC-62 9.2 µM | NCI-H226 17 µM | ACHN > 50 µM | HT-29 16.9 µM | SF-539 10.3 µM | SW-620 16.6 µM | Malme-3M 9.51 µM
